Measured values as given in US20060205743A1, “Protein kinase inhibitors” (priority 2003, published 2006).

Biological target: MAPKAP-K2 (Homo sapiens, UniProt P49137)
Experiment: MAPKAP-Kinase 2 Assay (33P-ATP peptide phosphorylation, filter plate)
Assay type: biochemical
Parameters: key: +: active; ++: more active; +++: very active
Conditions: assays conducted at typically 1-100 μM
Method: MAPKAP-Kinase 2 Assay [Compound Preparation]
Compounds are dissolved in DMSO at a concentration of 3 mM and stored in aliquots at −20° C. Compounds in DMSO from these stock aliquots are diluted in 30% DMSO to produce initial working stock solutions of 1 mM and 3 mM. Both of these stock solutions are then subjected to 1:10 serial dilutions in 30% DMSO in order to prepare 3000, 1000, 300, 100, 30, 10, 3, 1, 0.1, 0.01 μM stock solutions. 5 μl of each stock solution is used per 50 μl reaction to give final assay concentrations of 300, 100, 30, 10, 3, 1, 0.3, 0.1, 0.01, 0.001 μM.
The kinase reaction is conducted in a round-bottomed polypropylene 96-well plate. MAPKAP-K2 is diluted to 25 mU/μl in diluent buffer (50 mM Tris/HCl. pH7.5, 0.1 mM EGTA, 0.1% (v/v) β-mercaptoethanol, 1 mg/ml BSA). 5 μl compound or 30% DMSO is added to each well followed by 25 μl substrate cocktail (10 μM ATP, 30 μM peptide (KKLNRTLSVA), 0.5 μCi ^33P-γ-ATP in 50 mM Tris pH7.5, 0.1 mM EGTA, 10 mM Mg-acetate, 0.1% BME). The reaction is initiated with the addition of 20 μl enzyme solution per well or 20 μl diluent buffer without enzyme. The plate is shaken for 10 sec and then left at room temperature for 30 min. The reaction is terminated with 50 μl 150 mM phosphoric acid. 90 μl of the reaction mixture is then transferred into a 96-well P81 filter plate (Millipore) and incubated at room temperature for 5 min. The filter plate is then washed 4 times with 200 μl 75 mM phosphoric acid per well on a plate vacuum manifold (Millipore) and dried in an oven for 2-3 h. Packard MicroScint ‘0’ (30 μl) is then added to each well, the plate is mixed for 30 min and subjected to liquid scintillation counting on a Packard TopCount.
[Interpretation] %Control=(X−B)/(Tot−B)×100 %Inhibition=100−% Control X=cpm of the test compound wells B=cpm of wells without enzyme Tot=cpm of wells with DMSO vehicle only

Chain of MAPKAP-K2 (P49137 whole entry): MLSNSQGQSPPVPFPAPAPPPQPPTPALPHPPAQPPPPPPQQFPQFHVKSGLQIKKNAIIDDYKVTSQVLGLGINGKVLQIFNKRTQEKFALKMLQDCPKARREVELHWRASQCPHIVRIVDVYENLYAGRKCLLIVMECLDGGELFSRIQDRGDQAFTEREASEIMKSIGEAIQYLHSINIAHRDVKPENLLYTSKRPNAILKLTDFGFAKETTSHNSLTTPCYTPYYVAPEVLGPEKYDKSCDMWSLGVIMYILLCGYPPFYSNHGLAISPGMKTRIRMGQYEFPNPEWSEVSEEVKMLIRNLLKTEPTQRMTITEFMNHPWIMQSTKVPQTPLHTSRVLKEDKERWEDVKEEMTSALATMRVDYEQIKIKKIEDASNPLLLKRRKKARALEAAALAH

Row | SMILES | MAPKAP-K2 activity
1 | C#CC(C)(C)Nc1cc(NC2CCC(N)CC2)nc2ccnn12 (stereo not shown) [Compound 111] | ++
2 | COc1ccc(Nc2cc(NC3CCC(N)CC3)nc3ccnn23)c(F)c1 (stereo not shown) [Compound 112] | +++
3 | CC(C)Oc1ccc(Nc2cc(NC3CCC(N)CC3)nc3ccnn23)c(F)c1 (stereo not shown) [Compound 113] | +++
4 | COc1ccc(Nc2cc(NC3CCC(N)CC3)nc3ccnn23)c(C)c1 (stereo not shown) [Compound 114] | ++
5 | CC(C)=CCCC(C)=CCNc1cc(NC2CCC(N)CC2)nc2ccnn12 (stereo not shown) [Compound 115] | +++
6 | NCCNc1cc(Nc2ccc(F)c(Cl)c2)n2nccc2n1 [Compound 116] | +
7 | Fc1ccc(Nc2cc(NC3CCC(NCc4ccccc4)CC3)nc3ccnn23)cc1Cl (stereo not shown) [Compound 120] | +
8 | Fc1ccc(Nc2cc(NC3CCC(NCCc4ccccc4)CC3)nc3ccnn23)cc1Cl (stereo not shown) [Compound 121] | ++
9 | Fc1ccc(Nc2cc(NC3CCC(NCCCc4ccccc4)CC3)nc3ccnn23)cc1Cl (stereo not shown) [Compound 124] | ++
10 | CCCCCNC1CCC(Nc2cc(Nc3ccc(F)c(Cl)c3)n3nccc3n2)CC1 (stereo not shown) [Compound 125] | ++
11 | Fc1ccc(Nc2cc(NC3CCC(NCC4CCCCC4)CC3)nc3ccnn23)cc1Cl (stereo not shown) [Compound 126] | +
12 | Fc1ccc(Nc2cc(NC3CCC(NCC4CCOC4)CC3)nc3ccnn23)cc1Cl (stereo not shown) [Compound 127] | ++
13 | Fc1ccc(Nc2cc(NC3CCC(NCc4ccoc4)CC3)nc3ccnn23)cc1Cl (stereo not shown) [Compound 128] | ++
14 | Fc1ccc(Nc2cc(NC3CCC(NCc4ccsc4)CC3)nc3ccnn23)cc1Cl (stereo not shown) [Compound 129] | ++
15 | CCC(CC)CNC1CCC(Nc2cc(Nc3ccc(F)c(Cl)c3)n3nccc3n2)CC1 (stereo not shown) [Compound 130] | +
16 | Fc1ccc(Nc2cc(NC3CCC(NCCCCc4ccccc4)CC3)nc3ccnn23)cc1Cl (stereo not shown) [Compound 131] | ++
17 | Fc1ccc(Nc2cc(NC3CCC(NCCCCCc4ccccc4)CC3)nc3ccnn23)cc1Cl (stereo not shown) [Compound 132] | ++
18 | Fc1ccc(Nc2cc(NC3CCC(NC4CCCCC4)CC3)nc3ccnn23)cc1Cl (stereo not shown) [Compound 134] | ++
19 | CC(C)NC1CCC(Nc2cc(Nc3ccc(F)c(Cl)c3)n3nccc3n2)CC1 (stereo not shown) [Compound 135] | ++
20 | CN1CCC(N[C@H]2CC[C@H](Nc3cc(Nc4ccc(F)c(Cl)c4)n4nccc4n3)CC2)CC1 [Compound 136] | +++
21 | CC(CN(C)C)N[C@H]1CC[C@H](Nc2cc(Nc3ccc(F)c(Cl)c3)n3nccc3n2)CC1 (stereo partly shown) [Compound 137] | +
22 | Fc1ccc(Nc2cc(N[C@H]3CC[C@H](NC4CCC(c5ccccc5)CC4)CC3)nc3ccnn23)cc1Cl (stereo partly shown) [Compound 138] | +
23 | CCOc1ccc(Nc2cc(NC3CCCNC3)nc3ccnn23)cc1 (stereo not shown) [Compound 139] | +++
24 | Ic1cccc(Nc2cc(NC3CCCNC3)nc3ccnn23)c1 (stereo not shown) [Compound 140] | +++
25 | Fc1ccccc1Nc1cc(NC2CCCNC2)nc2ccnn12 (stereo not shown) [Compound 141] | +++
